Measured values from ChEMBL document CHEMBL1123770, “Systematic synthesis and biological evaluation of alpha- and beta-D-lyxofuranosyl nucleosides of the five naturally occurring nucleic acid bases” (1987).
In brackets after ≈: the same amount, converted by molar mass.

Experiments:
HeLa [1] = experiment: Minimum inhibitory concentration (MIC) required to reduce virus-induced cytopathogenicity by 50% against Coxsackie virus B4 in HeLa cells; type: functional; details: Homo sapiens
Oryctolagus cuniculus [2] = species on record: Oryctolagus cuniculus; experiment: Minimum inhibitory concentration (MIC) required to reduce virus-induced cytopathogenicity by 50% against G strain of Herpes simplex virus-2 in primary rabbit kidney cells; type: functional
[3] = Minimum cytotoxic concentration (MCC) required to cause a microscopically detectable alteration of host cell morphology, when incubated with PRK cells; type: functional; details: Oryctolagus cuniculus
Monkey = experiment: (§1) Minimum inhibitory concentration (MIC) required to reduce virus-induced cytopathogenicity by 50% against forest virus in African green monkey kidney (Vero B)cells; type: functional, Chlorocebus sabaeus; details: Cercopithecidae
HeLa [4] = experiment: Minimum cytotoxic concentration (MCC) required to cause a microscopically detectable alteration of host cell morphology, when incubated with HeLa cells; type: functional; details: Homo sapiens
WI-38 [5] = experiment: Minimum inhibitory concentration (MIC) required to reduce virus-induced cytopathogenicity by 50% against Rhinovirus-1A in human diploid (WI-38)cells; type: functional
Oryctolagus cuniculus [6] = species on record: Oryctolagus cuniculus; experiment: Minimum inhibitory concentration (MIC) required to reduce virus-induced cytopathogenicity by 50% against KOS strain of Herpes simplex virus-1 in primary rabbit kidney cells; type: functional
WI-38 [7] = experiment: Minimum inhibitory concentration (MIC) required to reduce virus-induced cytopathogenicity by 50% against Rhinovirus 9 in human diploid (WI-38)cells; type: functional; details: Homo sapiens; read-out: MIC
Vero [8] = experiment: Minimum cytotoxic concentration (MCC) required to cause a microscopically detectable alteration of host cell morphology, when incubated with Vero B cells; type: functional; details: Chlorocebus sabaeus
Vero [9] = experiment: Minimum inhibitory concentration (MIC) required to reduce virus-induced cytopathogenicity by 50% against Reo virus-1 in African green monkey kidney (Vero B)cells; type: functional, Chlorocebus sabaeus; details: Chlorocebus sabaeus; read-out: MIC
Vero [10] = experiment: Minimum inhibitory concentration (MIC) required to reduce virus-induced cytopathogenicity by 50% against Parainfluenza virus-3 in African green monkey kidney (Vero B)cells; type: functional, Chlorocebus sabaeus
WI-38 [11] = experiment: Minimum cytotoxic concentration (MCC) required to cause a microscopically detectable alteration of host cell morphology, when incubated with WI-38 cells; type: functional; details: Homo sapiens
Vero [12] = experiment: Minimum inhibitory concentration (MIC) required to reduce virus-induced cytopathogenicity by 50% against Sindbis virus in African green monkey kidney (Vero B)cells; type: functional; details: Chlorocebus sabaeus
Vero [13] = experiment: Minimum inhibitory concentration (MIC) required to reduce virus-induced cytopathogenicity by 50% against Coxsackie virus B4 in African green monkey kidney (Vero B)cells; type: functional, Chlorocebus sabaeus; details: Chlorocebus sabaeus; read-out: MIC
[14] = Inhibitory effect on 196 strain of Herper simplex virus-2 yield, in primary rabbit kidney cell culture 40 ug/mL concentration after 48 hours.; type: functional, Oryctolagus cuniculus
[15] = Inhibitory effect on KOS strain of Herper simplex virus-1 yield, in primary rabbit kidney cell culture at 100 ug/mL concentration after 24 hours; type: functional, Oryctolagus cuniculus
Mus musculus [16] = species on record: Mus musculus; experiment: Number of mice normal, without lesion after HSV-1 infection observed from day 0 to day 3; type: functional
Mus musculus [17] = species on record: Mus musculus; experiment: Number of mice normal, without lesion after HSV-2 infection observed from day 12 to day 20; type: functional
Mus musculus [18] = species on record: Mus musculus; experiment: Number of mice normal, without lesion after HSV-2 infection observed from day 0 to day 3; type: functional
[19] = Inhibitory effect on KOS strain of Herper simplex virus-1 yield, in primary rabbit kidney cell culture 100 ug/mL concentration after 48 hours.; type: functional, Oryctolagus cuniculus
[20] = Inhibitory effect on KOS strain of Herper simplex virus-1 yield, in primary rabbit kidney cell culture at 400 ug/mL concentration after 24 hours; type: functional, Oryctolagus cuniculus
[21] = Inhibitory effect on KOS strain of Herper simplex virus-1 yield, in primary rabbit kidney cell culture 400 ug/mL concentration after 48 hours.; type: functional, Oryctolagus cuniculus
Mus musculus [22] = species on record: Mus musculus; experiment: Number of mice normal, without lesion after HSV-1 infection observed from day 12 to day 20; type: functional
[23] = Inhibitory effect on 196 strain of Herper simplex virus-2 yield, in primary rabbit kidney cell culture 400 ug/mL concentration after 48 hours.; type: functional, Oryctolagus cuniculus
Mus musculus [24] = species on record: Mus musculus; experiment: Number of mice dead after HSV-1 infection observed from day 12 to day 20; type: functional
[25] = Inhibitory effect on 196 strain of Herper simplex virus-2 yield, in primary rabbit kidney cell culture 100 ug/mL concentration after 48 hours.; type: functional, Oryctolagus cuniculus
Oryctolagus cuniculus [26] = species on record: Oryctolagus cuniculus; experiment: Minimum inhibitory concentration (MIC) required to reduce virus-induced cytopathogenicity by 50% against Vaccinia virus in primary rabbit kidney cells; type: functional
Mus musculus [27] = species on record: Mus musculus; experiment: Survival rate at 20th day expressed as number of mice survived infected with HSV-1; out of 10; type: functional
[28] = Inhibitory effect on KOS strain of Herper simplex virus-1 yield, in primary rabbit kidney cell culture at 40 ug/mL concentration after 24 hours; type: functional, Oryctolagus cuniculus
[29] = Inhibitory effect on KOS strain of Herper simplex virus-1 yield, in primary rabbit kidney cell culture 40 ug/mL concentration after 48 hours.; type: functional, Oryctolagus cuniculus
[30] = Inhibitory effect on 196 strain of Herper simplex virus-2 yield, in primary rabbit kidney cell culture 40 ug/mL concentration after 24 hours.; type: functional, Oryctolagus cuniculus
Vero [31] = experiment: as §1; type: functional; details: Chlorocebus sabaeus
WI-38 (Homo sapiens) = experiment: Minimum inhibitory concentration (MIC) required to reduce virus-induced cytopathogenicity by 50% against Rhinovirus-1A in human diploid (WI-38)cells
Mus musculus [32] = species on record: Mus musculus; experiment: Number of mice dead after HSV-2 infection observed from day 12 to day 20; type: functional
[33] = Inhibitory effect on 196 strain of Herper simplex virus-2 yield, in primary rabbit kidney cell culture 400 ug/mL concentration after 24 hours.; type: functional, Oryctolagus cuniculus
[34] = Inhibitory effect on 196 strain of Herper simplex virus-2 yield, in primary rabbit kidney cell culture 100 ug/mL concentration after 24 hours.; type: functional, Oryctolagus cuniculus
Mus musculus [35] = species on record: Mus musculus; experiment: Survival rate at 20th day expressed as number of mice survived infected with HSV-2; out of 10; type: functional

`Cc1cn([C@@H]2O[C@H](CO)[C@H](O)[C@@H]2O)c(=O)[nH]c1=O` showed an MIC (HeLa [1]) greater than 400 µg/mL, an MIC (Oryctolagus cuniculus [2]; Oryctolagus cuniculus, read-out: MIC) greater than 400 µg/mL and an MCC [3] greater than 400 µg/mL. It also gave an MIC (Monkey) greater than 400 µg/mL, an MCC (HeLa [4]) greater than 400 µg/mL and an MIC (WI-38 [5]) greater than 400 µg/mL. The MIC (Oryctolagus cuniculus [6]) was greater than 400 µg/mL, the MIC (WI-38 [7]) was greater than 150 µg/mL and the MCC (Vero [8]) was greater than 400 µg/mL. It also gave an MIC (Vero [9]) greater than 400 µg/mL, an MIC (Vero [10]; Chlorocebus sabaeus, read-out: MIC) greater than 400 µg/mL and an MCC (WI-38 [11]) greater than 400 µg/mL. It also gave an MIC (Vero [12]) greater than 400 µg/mL and an MIC (Vero [13]) greater than 400 µg/mL.
`Nc1ncnc2c1ncn2[C@@H]1O[C@H](CO)[C@H](O)[C@@H]1O` (stereo in doubt; 8) gave an MIC (HeLa [1]) greater than 400 µg/mL, a Virus yield [14] of 5.5 log pfu ml-1 and a Virus yield [15] of 6.8 log pfu ml-1. For the same compound, the No. of mice (Mus musculus [16]) was 10, the No. of mice (Mus musculus [17]) was 3 and the MIC (Oryctolagus cuniculus [2]) was 100 µg/mL (≈ 374 µM). It also gave a No. of mice (Mus musculus [18]) of 10, a Virus yield [19] of 6.7 log pfu ml-1 and a Virus yield [20] of 6.2 log pfu ml-1. The Virus yield [21] was 6.6 log pfu ml-1, the No. of mice (Mus musculus [22]) was 4 and the MCC [3] was greater than 400 µg/mL. The Virus yield [23] was 5.1 log pfu ml-1, the No. of mice (Mus musculus [24]) was 6 and the Virus yield [25] was 5.3 log pfu ml-1. For the same compound, the MIC (Oryctolagus cuniculus [26]) was 70 µg/mL (≈ 262 µM), the Survival rate (Mus musculus [27]) was 4 and the Virus yield [28] was 6.8 log pfu ml-1. It also gave a Virus yield [29] of 7 log pfu ml-1, a Virus yield [30] of 5.4 log pfu ml-1 and an MIC (Vero [31]) greater than 400 µg/mL. For the same compound, the MCC (HeLa [4]) was greater than 400 µg/mL, the MIC (Oryctolagus cuniculus [6]) was greater than 400 µg/mL and the MIC (WI-38 [7]) was greater than 200 µg/mL. For the same compound, the MIC (WI-38 (Homo sapiens)) was greater than 200 µg/mL, the MCC (Vero [8]) was greater than 400 µg/mL and the MIC (Vero [9]) was greater than 400 µg/mL. It also gave an MIC (Vero [10]) of 70 µg/mL (≈ 262 µM), a No. of mice (Mus musculus [32]) of 7 and a Virus yield [33] of 3.8 log pfu ml-1. It also gave an MCC (WI-38 [11]) greater than 400 µg/mL, an MIC (Vero [12]) greater than 400 µg/mL and an MIC (Vero [13]) of 70 µg/mL (≈ 262 µM). For the same compound, the Virus yield [34] was 5.1 log pfu ml-1 and the Survival rate (Mus musculus [35]) was 3.
